The subject of test [1] is irritated skin (epidermal permeability barrier). As for the experimental part:
(§1) For the standardized washing, a normal commercially available shampoo which, according to the manufacturer, contains […] active cleansing substances was diluted with distilled water until it contained 10% active cleansing substances in the solution ready for use.
(§2) Tap water was used for the part-affusions with pure water.
(§3) The carbonated water employed was mechanically produced using an impregnation device in which tap water was supplemented with carbon dioxide under elevated pressure.
(§4) All the part-affusions take place at a temperature of 37° C.
(§5) The test was carried out as unilateral test on 20 test subjects (13 women and 7 men between 23 and 28 years of age). The volunteer test subjects were not subjected to any selection conditions apart from right-handedness. For random distribution, one half of the participants was treated with carbonic acid on the right hand and the other half was treated on the left hand.
(§6) Over a period of 2 weeks, the back of one hand of the test subjects was rinsed with carbonic acid for 1 min once a day. The other was rinsed with pure water as control. At the same time, the backs of both hands were repeatedly irritated by a standardized washing with the shampoo solution twice a day.
(§7) The effect of carbonic acid or pure water on the dermatophysiological parameters of irritated skin was measured using noninvasive dermatophysiological investigation methods.
(§8) The transepidermal water loss (TEWL) as a measure of the permeability barrier function was measured using the evaporimetry method. An EP1 evaporimeter (Servomed & Co., Hasselby, Stockholm, Sweden) was used. The relative skin hydration (RSH) was measured using the capacitance measurement method. A CM 820 PC corneometer (Courage & Khazaka Electronic GmbH, Cologne, Germany) was used. The measurements have been reported as mean of 2 recordings (evaporimetry) or 3 recordings (corneometry).
(§9) All the tests took place in the partially air-conditioned dermatophysiology laboratory at Osnabrück University.

Test [2] relates to irritated skin. Particulars: 2 weeks, 1 min rinse once a day, washing with shampoo solution twice a day; backs of hands. As to the method: as §1, §2, §3, §4, §5, §6, §7, §8, §9
Test [3] relates to epidermal ceramide synthesis. Conditions: SLS-irritated forearm; for values for the ceramide fraction (peak areas) versus test area treated with pure water: 1 min rinse daily, WILCOXON paired differences test.
Description: On the first investigation date, test plasters with 60 μl of 1% strength sodium lauryl sulfate (conventional synthetic surfactant frequently used in dermatological irritability research) were stuck onto in each case 3 test sites on the right and left forearm, and the epidermal lipids (baseline values before irritation) were obtained in vivo on the 4th test site on the right and left forearm. After 24 h, the test plasters were removed and all the previously irritated test sites were again irritated with sodium lauryl sulfate with occlusion for 24 h.
The intention of the cumulative irritation with sodium lauryl sulfate for 2×24 h on two consecutive days was initially to induce disturbance of the epidermal barrier, including damage to the epidermal lipid lamellae.
On the first investigation day after the irritation (Monday), the rinsing was preceded by in vivo delipidation in each case of one irritated test site on the forearm to be treated with carbonic acid and that to be treated with pure water.
Pure water was used on the comparison side for reasons of standardization. […] Use of pure water on the comparison side thus makes it possible to state that the effects which are found are attributable exclusively to the carbonic acid.
The eluate of solvent and epidermal lipids obtained in vivo was initially evaporated under nitrogen, and the epidermal lipids were then frozen. In this way, the samples for chromatography were initially collected from all the subjects during the investigations.
For the investigations by thin-layer chromatography, the 8 samples from each subject were thawed and, using different concentrations of the standard mixture, developed and detected on a thin-layer plate.
Determination of the lipid pattern before irritation, immediately after irritation and after use for one week and two weeks of carbonic acid or pure water makes it possible to make detailed statements about the regeneration of the epidermal barrier and any effects of the use of carbonic acid on individual lipid fractions of the epidermal barrier lipids. […]

The structures appear in SMILES notation. Like-named read-outs stand apart in the source and are kept apart here.

For the molecule `O=C(O)O` [carbonic acid], the “increase in TEWL (comparison of medians) versus pure water” value in test [1] (2 weeks, 1 min rinse once a day, washing with shampoo solution twice a day, backs of hands) is reported as “smaller increase in the TEWL”. Besides, in test [1] (30 min after use, all days with the exception of the first day, P<0.05), the “TEWL 30 min after use versus test regions treated with pure water” value is listed as “significantly lower”. Moreover, in test [1] (on days 3, 6, 7 and 8, values before daily use, WILCOXON paired differences test, P<0.05), the “TEWL values versus test area treated with pure water” value is on record as “significantly lower”. In addition, in test [2], the “baseline values of the RSH and RSH 30 min after use versus pure water” value is listed as “higher (in some cases significantly higher)”. Besides, the “values for the ceramide fraction (peak areas) after the treatments versus baseline values” in test [3] (after treatment for one and two weeks) is listed as “significantly higher than the baseline values”. In addition, the “values for the ceramide fraction (peak areas) versus test area treated with pure water” value in test [3] (after treatment for one week) is on record as “higher, nearly significantly so (p<0.05)”; in test [3] (after treatment for two weeks) it was “significantly so (p<0.01)”.

For the origin of these results see patent US6348205B1, “Use of carbonic acid for stabilizing or increasing the epidermal ceramide synthesis rate” (Beiersdorf AG, priority 1997, dated 2002).
